From BindingDB's records for doi:10.1016/j.bmcl.2004.04.105 (Institut Henri Beaufour, 2004)

Experiments:
[1] = Inhibitory activity against on calpain in C6 glial cells
[2] = Inhibitory activity against on calpain 1 in C6 glial cells

IC50 [1]	IC50 [2]	Structure (SMILES)
23.5 µM	–	CC(C)C[C@H](NC(=O)c1ccc2c(c1)Nc1ccccc1S2)C(=O)N[C@H]1CCOC1O (some centres not stated)
–	13.3 µM	CC(=O)OC1OCC[C@@H]1NC(=O)[C@H](CC(C)C)NC(=O)c1ccc2c(c1)Nc1ccccc1S2 (some centres not stated)
